# Source: paper PMC4729137, “Functional analysis of androgen receptor mutations that confer anti-androgen resistance identified in circulating cell-free DNA from prostate cancer patients” (Genome Biology, 2016)
# pEC50: −log10 of the molar value.
# Molecular target: T1, WT-AR (Homo sapiens, UniProt P10275)
# T1 sequence (P10275 1-920): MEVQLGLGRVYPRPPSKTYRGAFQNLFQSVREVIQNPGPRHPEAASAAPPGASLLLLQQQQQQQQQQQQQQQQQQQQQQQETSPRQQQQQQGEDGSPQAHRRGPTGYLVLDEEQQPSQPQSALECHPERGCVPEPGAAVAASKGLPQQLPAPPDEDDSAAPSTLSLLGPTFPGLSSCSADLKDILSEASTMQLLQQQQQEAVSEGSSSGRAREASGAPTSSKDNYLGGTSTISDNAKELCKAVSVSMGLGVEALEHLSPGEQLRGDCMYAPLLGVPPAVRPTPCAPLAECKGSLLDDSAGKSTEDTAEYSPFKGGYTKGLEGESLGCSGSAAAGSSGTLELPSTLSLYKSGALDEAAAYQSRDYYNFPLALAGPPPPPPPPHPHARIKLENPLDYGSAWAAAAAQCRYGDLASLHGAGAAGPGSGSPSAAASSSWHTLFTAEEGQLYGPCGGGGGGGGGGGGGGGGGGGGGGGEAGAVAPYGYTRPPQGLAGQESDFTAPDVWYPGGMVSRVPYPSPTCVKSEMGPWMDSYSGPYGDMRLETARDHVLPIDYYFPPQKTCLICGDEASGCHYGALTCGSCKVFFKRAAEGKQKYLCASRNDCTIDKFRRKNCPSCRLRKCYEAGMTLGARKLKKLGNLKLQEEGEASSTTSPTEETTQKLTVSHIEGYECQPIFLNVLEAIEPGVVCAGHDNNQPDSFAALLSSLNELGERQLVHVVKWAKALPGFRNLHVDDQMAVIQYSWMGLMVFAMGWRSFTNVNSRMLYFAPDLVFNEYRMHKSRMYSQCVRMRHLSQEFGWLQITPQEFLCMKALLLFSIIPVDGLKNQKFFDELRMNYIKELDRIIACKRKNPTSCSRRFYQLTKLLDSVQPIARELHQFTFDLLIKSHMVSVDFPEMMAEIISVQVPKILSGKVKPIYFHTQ
# Assay: cell-based
smiles,measurement,value
C[C@]12CCC(=O)C=C1CC[C@@H]1[C@@H]2[C@@H](O)C[C@@]2(C)[C@H]1CC[C@]2(O)C(=O)CO [hydrocortisone],pEC50,< 6.30
